What all share (format): cell-based, human
One data set concerns Lovo. Put plainly: Sensitivity to oxaliplatin, MTS assay. The settings on record: 48 hours of drug exposure, cell survival rate by MTS assay. How it is done:
(§1) Nine human colorectal cancer cell lines (SW480, Ls174T, Lovo, SW620, HCT116, HCT15, HT29, DLD-1, and WiDr) were obtained from the following sources (Table 1).
(§2) Culture was carried out under the conditions of 0100 mm/Tissue Culture Dish (IWAKI), culture medium (D-MEM, 2 mM Glutamine, 10% Fetal Bovine Serum), 37° C., and 5% CO2.
(§3) The aforementioned nine human colorectal cancer cell lines were respectively inoculated onto a 96 well plate at a density of 1,500 cells/well, and after 24 hours, oxaliplatin was added thereto. The cell survival rate after 48 hours of drug exposure was evaluated by the MTS assay (CellTiter96™ AQueous One Solution Cell Proliferation Assay, Promega), and the IC50 values were determined from the absorbance values. Regarding the drug exposure conditions, eleven conditions such as Control (0 μM), 0.001 μM, 0.01 μM, 0.1 μM, 0.3 μM, 1 μM, 3 μM, 10 μM, 30 μM, 100 μM, and 1,000 μM were used. The evaluation of sensitivity was performed three times with cells of different passage numbers, by measuring three samples each for the respective cell lines, drug exposure time, and drug exposure conditions in a single time test. An analysis was carried out based on the survival rate calculated from the results of the MTS assay.

The next data set has as its system WiDr. Put plainly: Sensitivity to oxaliplatin, MTS assay. The settings on record: 48 hours of drug exposure, cell survival rate by MTS assay. The procedure:
as §1, §2, §3

The subject of another data set is HCT116. Nature of the data set: Sensitivity to oxaliplatin, MTS assay. The conditions noted are these: HCT116, 48 hours of drug exposure, cell survival rate by MTS assay. The procedure:
as §1, §2, §3
A general note: Tetrazolium dyes change colour on reduction, which living cells bring about.

The test system of a further data set is SW620. Put plainly: Sensitivity to oxaliplatin, MTS assay. The conditions noted are these: SW620, 48 hours of drug exposure, cell survival rate by MTS assay. The procedure: as §1, §2, §3
The next data set deals with HCT15. Put plainly: Sensitivity to oxaliplatin, MTS assay. The conditions noted are these: HCT15, 48 hours of drug exposure, cell survival rate by MTS assay. The procedure: as §1, §2, §3
In another data set the test system is DLD-1. Put plainly: Sensitivity to oxaliplatin, MTS assay. The settings on record: DLD-1, 48 hours of drug exposure, cell survival rate by MTS assay. The procedure: as §1, §2, §3
The test system of another data set is Ls174T. Put plainly: Sensitivity to oxaliplatin, MTS assay. The settings on record: 48 hours of drug exposure, cell survival rate by MTS assay. The procedure:
as §1, §2, §3

Another data set has as its system HT29. Put plainly: Sensitivity to oxaliplatin, MTS assay. The conditions noted are these: HT29, 48 hours of drug exposure, cell survival rate by MTS assay. How it is done: as §1, §2, §3
The next data set deals with SW480. Nature of the data set: Sensitivity to oxaliplatin, MTS assay. The conditions noted are these: SW480, 48 hours of drug exposure, cell survival rate by MTS assay. How it is done:
as §1, §2, §3

The test system of data set [1] is HCT116 into which siRNA had been introduced. Nature of the data set: Sensitivity to oxaliplatin after introduction of siRNA, MTS assay. The conditions noted are these: for sensitivity to oxaliplatin compared to the case where the control siRNA had been introduced: HCT116, 150 pmol siRNA per well. The procedure:
as §3
(§4) Among the nine kinds of colorectal cancer cell lines described in Test Example 1, Ls174T was used as an oxaliplatin-high-sensitivity cell line, HCT116 was used as a moderate-sensitivity cell line, and HT29 and DLD-1 were used as low-sensitivity cell lines.
(§5) Each of the human colorectal cancer cell lines was inoculated into a 6-well plate at a density of 1×10^5 cells/well, and after 24 hours, the medium was replaced with serum-free DMEM medium (Wako, 044-29765). A solution obtained by dissolving 150 pmol per well of each of the siRNAs indicated in Table 8 in 250 μL of Opti MEM (GIBCO, No. 319985) was mixed with a solution obtained by mixing 4.5 μL of Lipofectamin RNAiMAX Reagent (Invitrogen, No. 13778-150) and 250 μL of Opti MEM (GIBCO, No. 319985). The resultant mixture was incubated for 10 to 20 minutes. After incubation, 500 μL each of the mixture was added to each well of the 6-well plate on which the human colorectal cancer cell lines were cultured, and the medium in each well was replaced with a serum-added DMEM medium (Wako, 044-29765) 4 to 6 hours after the addition. The cells were collected 24 hours after the addition of siRNA.
(§6) Regarding the control siRNA, siRNA of No. 4390843 of Life Technologies, Inc. was used.
(§7) Measurement of the sensitivity to oxaliplatin (measurement of IC50 values) of the human colorectal cancer cell lines into which siRNA had been introduced, was performed by the method described in Test Example 1(1)(c).

In data set [2] the test system is Ls174T into which siRNA had been introduced. The data set is described as above. The settings on record: for sensitivity to oxaliplatin compared to the case where the control siRNA had been introduced: 150 pmol siRNA per well. How it is done: as §3, §4, §5, §6, §7
Data set [3] relates to HT29 into which siRNA had been introduced. The data set is described as above. The conditions noted are these: for sensitivity to oxaliplatin compared to the case where the control siRNA had been introduced: HT29, 150 pmol siRNA per well. How it is done:
as §3, §4, §5, §6, §7

For data set [4], the system named is DLD-1 into which siRNA had been introduced. The description is as above. The procedure: as §3, §4, §5, §6, §7

Several values for one entry are separate records, joined by “and”; a condition that tells them apart may be missing. Identical values can stand only once.

As to `O=C1[O][Pt]2([NH][C@@H]3CCCC[C@H]3[NH]2)[O]C1=O` [oxaliplatin, (SP-4-2)-[(1R,2R)-cyclohexane-1,2-diamine-κN, κN′] [ethanedio ato(2-)-κO^1, κO^2]platinum], the half-maximal inhibitory concentration (IC50) (commonly the concentration at which inhibition is half-maximal) came to 0.79 ± 0.18 µM with Lovo; 17.7 ± 8.39 µM in the data set with WiDr; 1.15 ± 0.34 µM with HCT116; 1.14 ± 0.74 µM in the data set with SW620; 1.45 ± 0.44 µM with HCT15; 13.9 ± 6.29 µM in the data set on DLD-1. Moreover, the IC50 was 0.61 ± 0.11 µM with Ls174T; 7.99 ± 2.66 µM in the data set on HT29; 0.43 ± 0.13 µM in the data set with SW480; 0.76 µM in [1] (HCT116, ANXA5 siRNA introduced); 2.18 µM in [1] (HCT116, C1QBP siRNA introduced); 1.72 µM and 1.39 µM and 1.53 µM and 1.34 µM in data set [1] (HCT116, Control siRNA introduced). For the same molecule, the IC50 is 21.5 µM in [1] (HCT116, PHB siRNA introduced); 0.73 µM in [1] (HCT116, TALDO siRNA introduced); 0.86 µM and 0.68 µM in data set [2] (Control siRNA introduced); 0.39 µM in data set [2] (IPYR siRNA introduced); 11.9 µM in data set [2] (PHB siRNA introduced); 0.43 µM in [2] (TALDO siRNA introduced). In addition, the IC50 in [3] (HT29, ANXA5 siRNA introduced) was determined as 5.35 µM; in data set [3] (HT29, Control siRNA introduced), 16.1 µM; in data set [3] (HT29, PHB siRNA introduced), 41.9 µM; in data set [3] (HT29, TALDO siRNA introduced), 2.77 µM; in data set [4] (DLD-1, Control siRNA introduced), 14.7 µM; in data set [4] (DLD-1, PHB siRNA introduced) it was 52.3 µM.

Take “IPYR siRNA: siRNA GGAAUCAGUUGCAUGAAUAtt (life technologies, s10878), SEQ ID NO: 5 (GGAAUCAGUUGCAUGAAUATT; chemistry not given here)”: the “sensitivity to oxaliplatin compared to the case where the control siRNA had been introduced” value in [2] is given as “enhanced”.

On to “PHB siRNA: siRNA CGUGGGUACAGAAACCAAUtt (life technologies, s10424), SEQ ID NO: 1 (CGUGGGUACAGAAACCAAUTT; chemistry not given here)”, for which the “sensitivity to oxaliplatin compared to the case where the control siRNA had been introduced” value in data set [1] is “decreased”; in data set [2], “decreased”; in data set [3], “decreased”; in data set [4] (DLD-1, 150 pmol siRNA per well), “decreased”.

As for “ANXA5 siRNA: siRNA GUACAUGACUAUAUCAGGAtt (life technologies, s1392), SEQ ID NO: 2 (GUACAUGACUAUAUCAGGATT; chemistry not given here)”, the “sensitivity to oxaliplatin compared to the case where the control siRNA had been introduced” value in data set [1] and in data set [3] was “enhanced” each time.

Regarding “TALDO siRNA: siRNA UGCUAUUGAUAAACUUUUUtt (life technologies, s13776), SEQ ID NO: 3 (UGCUAUUGAUAAACUUUUUTT; chemistry not given here)”, the “sensitivity to oxaliplatin compared to the case where the control siRNA had been introduced” value in [1], in data set [2] and in data set [3] was “enhanced” in each case.

As for “C1QBP siRNA: siRNA GGCCUUAUAUGACCACCUAtt (life technologies, s2139), SEQ ID NO: 4 (GGCCUUAUAUGACCACCUATT; chemistry not given here)”, the “sensitivity to oxaliplatin compared to the case where the control siRNA had been introduced” value in data set [1] is “decreased”.

The values are drawn from US20170248578A1, “ANTI-CANCER AGENT SENSITIVITY-DETERMINING MARKER” (KEIO UNIVERSITY, priority 2014, published 2017).
